# The source made the active and inactive calls. The calls are words filed in the database; no cut-off is given here.
# Assays:
# [1] = Hemolytic activity against RBC (unknown origin) at 240 uM; assay type: ADME, cell-based, Erythrocyte; settings: red blood cells (erythrocytes); read-out: Activity
# Bacillus cereus [2] = assay: Bactericidal activity against Bacillus cereus; assay type: functional
# Staphylococcus aureus [3] = assay: Antibacterial activity against Staphylococcus aureus ATCC 209p assessed as increase in crystal violet uptake at 2 uM incubated for 30 mins (reference value: 1.8 %); assay type: functional
# [4] = Hemolytic activity against RBC (unknown origin) at 60 uM; assay type: ADME, cell-based, Erythrocyte; settings: red blood cells (erythrocytes); read-out: Activity
# Staphylococcus aureus [5] = assay: Antibacterial activity against clinical isolate amoxicillin and ciprofloxacin resistance Staphylococcus aureus; assay type: functional
# [6] = Hemolytic activity against RBC (unknown origin) at 1 uM; assay type: ADME, cell-based, Erythrocyte; settings: red blood cells (erythrocytes); read-out: Activity
# M-HeLa [7] = assay: Induction of apoptosis in human M-HeLa cells assessed as necrotic cells at 6 uM incubated for 24 hrs by Annexin-V FITC and propidium iodide staining based flow cytometry analysis (reference value: 1.32 %); assay type: functional
# M-HeLa [8] = assay: Induction of apoptosis in human M-HeLa cells assessed as necrotic cells at 3 uM incubated for 24 hrs by Annexin-V FITC and propidium iodide staining based flow cytometry analysis (reference value: 1.32 %); assay type: functional
# M-HeLa [9] = assay: Induction of apoptosis in human M-HeLa cells assessed as viable cells at 3 uM incubated for 24 hrs by Annexin-V FITC and propidium iodide staining based flow cytometry analysis (reference value: 90.48 %); assay type: functional; settings: read-out: Activity
# [10] = Hemolytic activity against RBC (unknown origin) at 480 uM; assay type: ADME, cell-based, Erythrocyte; settings: red blood cells (erythrocytes); read-out: Activity
# [11] = Selectivity index, ratio of IC50 for human Chang cells to IC50 for human PANC1 cells
# [12] = Selectivity index, ratio of IC50 for human Chang cells to IC50 for human M-HeLa cells
# M-HeLa [13] = assay: Induction of mitochondrial membrane potential loss in human M-HeLa cells assessed as decrease in red fluorescence intensity at 6 uM by JC10 staining based flow cytometry analysis (reference value: 99.70 %); assay type: functional; parameters: scale not given: the % may be the effect or the level left
# Staphylococcus aureus [14] = assay: Antibacterial activity against Staphylococcus aureus ATCC 209p; assay type: functional
# M-HeLa [15] = assay: Induction of apoptosis in human M-HeLa cells assessed as viable cells at 6 uM incubated for 24 hrs by Annexin-V FITC and propidium iodide staining based flow cytometry analysis (reference value: 90.48 %); assay type: functional; settings: read-out: Activity
# M-HeLa [16] = assay: Induction of apoptosis in human M-HeLa cells assessed as early apoptotic cells at 3 uM incubated for 24 hrs by Annexin-V FITC and propidium iodide staining based flow cytometry analysis (reference value: 7.85 %); assay type: functional
# M-HeLa [17] = assay: Induction of mitochondrial membrane potential loss in human M-HeLa cells assessed as decrease in red fluorescence intensity at 3 uM by JC10 staining based flow cytometry analysis (reference value: 99.70 %); assay type: functional; parameters: scale not given: the % may be the effect or the level left
# [18] = system: Trichophyton mentagrophytes; assay: Fungicidal activity against Trichophyton mentagrophytes; assay type: functional
# Bacillus cereus [19] = assay: Antibacterial activity against Bacillus cereus; assay type: functional
# Candida albicans [20] = assay: Fungicidal activity against Candida albicans; assay type: functional
# [21] = Hemolytic activity against RBC (unknown origin) at 10 uM; assay type: ADME, cell-based, Erythrocyte; settings: red blood cells (erythrocytes); read-out: Activity
# M-HeLa [22] = assay: Induction of apoptosis in human M-HeLa cells assessed as late apoptotic cells at 3 uM incubated for 24 hrs by Annexin-V FITC and propidium iodide staining based flow cytometry analysis (reference value: 0.36 %); assay type: functional
# HepG2 = assay: Cytotoxicity against human HepG2 cells; assay type: functional, cell-based; settings: read-out: IC50
# [23] = Selectivity index, ratio of IC50 for human Chang cells to IC50 for human HepG2 cells
# Staphylococcus aureus [24] = assay: Bactericidal activity against Staphylococcus aureus ATCC 209p; assay type: functional
# [25] = system: Trichophyton mentagrophytes; assay: Antifungal activity against Trichophyton mentagrophytes; assay type: functional
# Staphylococcus aureus [26] = assay: Antibacterial activity against clinical isolate amoxicillin resistance Staphylococcus aureus; assay type: functional
# Staphylococcus aureus [27] = assay: Bactericidal activity against clinical isolate amoxicillin and ciprofloxacin resistance Staphylococcus aureus; assay type: functional
# [28] = Hemolytic activity against RBC (unknown origin) at 40 uM; assay type: ADME, cell-based, Erythrocyte; settings: red blood cells (erythrocytes); read-out: Activity
# M-HeLa [29] = assay: Induction of mitochondrial membrane potential loss in human M-HeLa cells assessed as decrease in red fluorescence intensity by JC10 staining based flow cytometry analysis; assay type: functional, cell-based
# M-HeLa [30] = assay: Induction of apoptosis in human M-HeLa cells assessed as early apoptotic cells at 6 uM incubated for 24 hrs by Annexin-V FITC and propidium iodide staining based flow cytometry analysis (reference value: 7.85 %); assay type: functional
# M-HeLa [31] = assay: Induction of apoptosis in human M-HeLa cells assessed as early apoptotic cells incubated for 24 hrs by Annexin-V FITC and propidium iodide staining based flow cytometry analysis; assay type: functional, cell-based
# Staphylococcus aureus [32] = assay: Bactericidal activity against clinical isolate amoxicillin resistance Staphylococcus aureus; assay type: functional
# MCF7 = assay: Cytotoxicity against human MCF7 cells; assay type: functional, cell-based
# [33] = Hemolytic activity against RBC (unknown origin) at 120 uM; assay type: ADME, cell-based, Erythrocyte; settings: red blood cells (erythrocytes); read-out: Activity
# M-HeLa [34] = assay: Induction of apoptosis in human M-HeLa cells assessed as late apoptotic cells at 6 uM incubated for 24 hrs by Annexin-V FITC and propidium iodide staining based flow cytometry analysis (reference value: 0.36 %); assay type: functional
# [35] = Hemolytic activity against RBC (unknown origin) at 20 uM; assay type: ADME, cell-based, Erythrocyte; settings: red blood cells (erythrocytes); read-out: Activity
# PANC-1 = assay: Cytotoxicity against human PANC1 cells; assay type: functional, cell-based
# Candida albicans [36] = assay: Antifungal activity against Candida albicans; assay type: functional
# M-HeLa [37] = assay: Cytotoxicity against human M-HeLa cells; assay type: functional, cell-based
# [38] = Selectivity index, ratio of IC50 for human Chang cells to IC50 for human MCF7 cells
# [39] = Hemolytic activity against RBC (unknown origin) at 5 uM; assay type: ADME, cell-based, Erythrocyte; settings: red blood cells (erythrocytes); read-out: Activity
# [40] = Cytotoxicity against human Chang cells; assay type: cell-based
# [41] = Biosurfactant activity assessed as critical micelle concentration of compound by tensiometry analysis; assay type: functional
# [42] = Biosurfactant activity assessed as Critical micelle concentration of compound by conductometry analysis; assay type: physicochemical
smiles,measurement,setting,value
CCCCCCCCCCCC[P+](Cc1ccccc1O)(c1ccccc1)c1ccccc1.[Cl-],hemolysis at 240 µM,[1],42.3%
same,MBC,Bacillus cereus [2],3.8 µM
same,Activity,Staphylococcus aureus [3],24 - 82.7%
same,hemolysis at 60 µM,[4],12.2%
same,MIC,Staphylococcus aureus [5],2 µM
same,hemolysis at 1 µM,[6],0%
same,Activity,M-HeLa [7],2.42%
same,Activity,M-HeLa [8],4.57%
same,viability at 3 µM,M-HeLa [9],46.4%
same,hemolysis at 480 µM,[10],65.4%
same,Ratio IC50,[11],1.7
same,Ratio IC50,[12],16.4
same,Activity,M-HeLa [13],39.17%
same,MIC,Staphylococcus aureus [14],1 µM
same,viability at 6 µM,M-HeLa [15],33.4%
same,Activity,M-HeLa [16],39.26%
same,Activity,M-HeLa [17],76.61%
same,MFC,[18],7.8 µM
same,MIC,Bacillus cereus [19],0.9 µM
same,MFC,Candida albicans [20],7.8 µM
same,hemolysis at 10 µM,[21],1.3%
same,Activity,M-HeLa [22],9.78%
same,IC50,HepG2,9.8 µM
same,Ratio IC50,[23],4.5
same,MBC,Staphylococcus aureus [24],2 µM
same,MIC,[25],7.8 µM
same,MIC,Staphylococcus aureus [26],4 µM
same,MBC,Staphylococcus aureus [27],8 µM
same,hemolysis at 40 µM,[28],2.9%
same,Activity,M-HeLa [29],Dose-dependent effect
same,Activity,M-HeLa [30],53.31%
same,Activity,M-HeLa [31],Dose-dependent effect
same,MBC,Staphylococcus aureus [32],16 µM
same,IC50,MCF7,7.2 µM
same,hemolysis at 120 µM,[33],21.2%
same,Activity,M-HeLa [34],10.89%
same,hemolysis at 20 µM,[35],1.8%
same,IC50,PANC-1,25.3 µM
same,MIC,Candida albicans [36],7.8 µM
same,IC50,M-HeLa [37],2.6 µM
same,Ratio IC50,[38],5.9
same,hemolysis at 5 µM,[39],0.9%
same,IC50,[40],42.8 µM
CCCCCCCCCC[P+](Cc1ccccc1O)(c1ccccc1)c1ccccc1.[Cl-],hemolysis at 240 µM,[1],9.6%
same,MBC,Bacillus cereus [2],4.1 µM
same,Activity,Staphylococcus aureus [3],24 - 82.7%
same,hemolysis at 60 µM,[4],2.8%
same,MIC,Staphylococcus aureus [5],8.2 µM
same,hemolysis at 1 µM,[6],0%
same,hemolysis at 480 µM,[10],16.4%
same,Ratio IC50,[11],1.7
same,Ratio IC50,[12],13.4
same,MIC,Staphylococcus aureus [14],1 µM
same,MFC,[18],16.6 µM
same,MIC,Bacillus cereus [19],1.9 µM
same,MFC,Candida albicans [20],16.6 µM
same,hemolysis at 10 µM,[21],0.8%
same,IC50,HepG2,12.3 µM
same,Ratio IC50,[23],3.7
same,MBC,Staphylococcus aureus [24],4.1 µM
same,MIC,[25],16.6 µM
same,MIC,Staphylococcus aureus [26],8.2 µM
same,MBC,Staphylococcus aureus [27],32.8 µM
same,hemolysis at 40 µM,[28],2.3%
same,MBC,Staphylococcus aureus [32],16.4 µM
same,IC50,MCF7,13.2 µM
same,hemolysis at 120 µM,[33],5.9%
same,hemolysis at 20 µM,[35],1.3%
same,IC50,PANC-1,26.3 µM
same,MIC,Candida albicans [36],16.6 µM
same,IC50,M-HeLa [37],3.4 µM
same,Ratio IC50,[38],3.5
same,hemolysis at 5 µM,[39],0%
same,IC50,[40],45.7 µM
CCCCCCCCCCCCCCCCCC[P+](Cc1ccccc1O)(c1ccccc1)c1ccccc1.[Cl-],hemolysis at 240 µM,[1],100%
same,MBC,Bacillus cereus [2],215 µM
same,hemolysis at 60 µM,[4],2.5%
same,MIC,Staphylococcus aureus [5],inactive
same,hemolysis at 1 µM,[6],0%
same,hemolysis at 480 µM,[10],100%
same,Ratio IC50,[11],1.1
same,Ratio IC50,[12],1
same,MIC,Staphylococcus aureus [14],108 µM
same,MFC,[18],inactive
same,CMC,[41],0.04 mM
same,MIC,Bacillus cereus [19],108 µM
same,MFC,Candida albicans [20],inactive
same,CMC,[42],0.04 mM
same,hemolysis at 10 µM,[21],0%
same,IC50,HepG2,73 µM
same,Ratio IC50,[23],0.94
same,MBC,Staphylococcus aureus [24],215 µM
same,MIC,[25],inactive
same,MIC,Staphylococcus aureus [26],inactive
same,MBC,Staphylococcus aureus [27],inactive
same,hemolysis at 40 µM,[28],1.4%
same,MBC,Staphylococcus aureus [32],inactive
same,IC50,MCF7,49 µM
same,hemolysis at 120 µM,[33],15.6%
same,hemolysis at 20 µM,[35],1.2%
same,IC50,PANC-1,65 µM
same,MIC,Candida albicans [36],inactive
same,IC50,M-HeLa [37],68 µM
same,Ratio IC50,[38],1.4
same,hemolysis at 5 µM,[39],0%
same,IC50,[40],69 µM

# Reference: ChEMBL document CHEMBL4622868, “Design and synthesis of amphiphilic 2-hydroxybenzylphosphonium salts with antimicrobial and antitumor dual action” (Bioorg Med Chem Lett, 2020)
